In publication PMC4051630, “A Comparison of Protein Kinases Inhibitor Screening Methods Using Both Enzymatic Activity and Binding Affinity Determination” (PLoS ONE, 2014):

Experiments:
Test in all cases: Differential Scanning Fluorimetry (DSF) Tm shift
Type in all cases: binding
PAK4 Catalytic Domain = molecular target: T1, PAK4 Catalytic Domain (Homo sapiens, UniProt O96013); conditions: 2 µM protein, 10 µM inhibitor, average of 3 experiments, each in duplicate
T1 construct: For all of them, we expressed and purified the catalytic domain separately; His-tag; made in house; host or cells: Escherichia coli
T1 sequence (O96013 321-572 limits assumed): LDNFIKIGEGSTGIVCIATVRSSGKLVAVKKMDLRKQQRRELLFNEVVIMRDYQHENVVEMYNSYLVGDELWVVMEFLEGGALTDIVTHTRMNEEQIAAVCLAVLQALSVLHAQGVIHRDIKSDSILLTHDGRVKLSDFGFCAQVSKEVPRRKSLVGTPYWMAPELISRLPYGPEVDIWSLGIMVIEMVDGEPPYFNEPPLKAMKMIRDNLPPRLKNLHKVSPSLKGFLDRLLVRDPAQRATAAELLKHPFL

DMPK Catalytic Domain = molecular target: T2, DMPK Catalytic Domain (Homo sapiens, UniProt Q09013); conditions: 2 µM protein, 10 µM inhibitor, average of 3 experiments, each in duplicate
T2 construct: For all of them, we expressed and purified the catalytic domain separately; His-tag; made in house; host or cells: Escherichia coli
T2 sequence (Q09013 71-339 limits assumed): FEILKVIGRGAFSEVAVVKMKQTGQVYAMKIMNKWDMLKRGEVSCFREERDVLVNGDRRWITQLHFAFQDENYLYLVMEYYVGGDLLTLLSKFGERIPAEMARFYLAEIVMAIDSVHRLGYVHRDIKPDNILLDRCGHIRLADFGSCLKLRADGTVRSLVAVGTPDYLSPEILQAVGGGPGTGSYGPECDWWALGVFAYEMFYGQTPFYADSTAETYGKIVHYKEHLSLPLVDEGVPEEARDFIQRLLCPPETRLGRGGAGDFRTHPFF

AKT3 Catalytic Domain = molecular target: T3, AKT3 Catalytic Domain (Homo sapiens, UniProt Q9Y243); conditions: 2 µM protein, 10 µM inhibitor, average of 3 experiments, each in duplicate
T3 construct: AKT3 (Q9Y243); CD; His-tag; made in house; host or cells: Escherichia coli
T3 sequence (Q9Y243 122-479): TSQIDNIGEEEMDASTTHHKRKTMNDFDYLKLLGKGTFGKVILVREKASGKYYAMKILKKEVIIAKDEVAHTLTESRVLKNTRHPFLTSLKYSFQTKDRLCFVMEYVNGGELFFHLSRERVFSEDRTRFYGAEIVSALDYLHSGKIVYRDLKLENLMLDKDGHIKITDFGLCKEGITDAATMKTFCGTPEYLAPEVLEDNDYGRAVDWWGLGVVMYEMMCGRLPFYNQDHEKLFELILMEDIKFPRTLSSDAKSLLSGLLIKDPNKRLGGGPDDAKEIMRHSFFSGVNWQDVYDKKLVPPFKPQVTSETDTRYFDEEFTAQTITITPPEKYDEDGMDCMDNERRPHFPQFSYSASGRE

STK3 Catalytic Domain = molecular target: T4, STK3 Catalytic Domain (Homo sapiens, UniProt Q13188); conditions: 2 µM protein, 10 µM inhibitor, average of 3 experiments, each in duplicate
T4 construct: For all of them, we expressed and purified the catalytic domain separately; His-tag; made in house; host or cells: Escherichia coli
T4 sequence (Q13188 27-278 limits assumed): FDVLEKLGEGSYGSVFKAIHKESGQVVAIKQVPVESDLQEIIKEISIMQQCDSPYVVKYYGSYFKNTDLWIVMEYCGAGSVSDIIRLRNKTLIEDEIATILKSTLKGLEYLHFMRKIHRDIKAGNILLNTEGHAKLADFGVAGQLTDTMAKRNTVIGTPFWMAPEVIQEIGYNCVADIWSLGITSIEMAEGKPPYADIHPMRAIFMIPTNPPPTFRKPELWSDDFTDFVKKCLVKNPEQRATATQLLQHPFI

[1] = molecular target: T5, STK3 Catalytic domain+SARAH (Homo sapiens, UniProt Q13188); conditions: 2 µM protein, 10 µM inhibitor, average of 3 experiments, each in duplicate
T5 construct: for 8, we also made a longer version containing one or more additional domains; His-tag; made in house; host or cells: Escherichia coli
T5 sequence (Q13188 1-491): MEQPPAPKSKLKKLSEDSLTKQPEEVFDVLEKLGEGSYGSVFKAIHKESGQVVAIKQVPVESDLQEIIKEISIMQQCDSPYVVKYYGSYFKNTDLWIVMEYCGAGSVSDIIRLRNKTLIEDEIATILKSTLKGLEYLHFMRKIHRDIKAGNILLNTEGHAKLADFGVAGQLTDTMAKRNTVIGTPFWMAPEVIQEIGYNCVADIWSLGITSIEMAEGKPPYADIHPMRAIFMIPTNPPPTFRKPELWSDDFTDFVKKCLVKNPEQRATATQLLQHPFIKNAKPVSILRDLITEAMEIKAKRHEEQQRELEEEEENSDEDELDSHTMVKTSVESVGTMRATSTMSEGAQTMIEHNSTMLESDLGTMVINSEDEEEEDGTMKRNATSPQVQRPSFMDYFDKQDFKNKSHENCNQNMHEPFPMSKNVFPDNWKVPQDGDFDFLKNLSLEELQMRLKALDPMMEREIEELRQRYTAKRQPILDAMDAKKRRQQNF

FES Catalytic Domain = molecular target: T6, FES Catalytic Domain (Homo sapiens, UniProt P07332); conditions: 2 µM protein, 10 µM inhibitor, average of 3 experiments, each in duplicate
T6 construct: For all of them, we expressed and purified the catalytic domain separately; His-tag; made in house; host or cells: Escherichia coli
T6 sequence (P07332 561-822 limits assumed): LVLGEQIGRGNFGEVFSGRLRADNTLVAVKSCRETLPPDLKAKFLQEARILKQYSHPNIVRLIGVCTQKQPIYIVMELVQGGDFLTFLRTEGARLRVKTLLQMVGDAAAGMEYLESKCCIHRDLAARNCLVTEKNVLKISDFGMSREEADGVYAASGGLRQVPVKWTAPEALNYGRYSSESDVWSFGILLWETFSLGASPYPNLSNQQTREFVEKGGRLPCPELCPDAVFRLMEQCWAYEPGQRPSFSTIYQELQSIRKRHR

FES Catalytic Domain+SH2 = molecular target: T7, FES Catalytic Domain+SH2 (Homo sapiens, UniProt P07332); conditions: 2 µM protein, 10 µM inhibitor, average of 3 experiments, each in duplicate
T7 construct: for 8, we also made a longer version containing one or more additional domains; His-tag; made in house; host or cells: Escherichia coli
T7 sequence (P07332 448-822 limits assumed): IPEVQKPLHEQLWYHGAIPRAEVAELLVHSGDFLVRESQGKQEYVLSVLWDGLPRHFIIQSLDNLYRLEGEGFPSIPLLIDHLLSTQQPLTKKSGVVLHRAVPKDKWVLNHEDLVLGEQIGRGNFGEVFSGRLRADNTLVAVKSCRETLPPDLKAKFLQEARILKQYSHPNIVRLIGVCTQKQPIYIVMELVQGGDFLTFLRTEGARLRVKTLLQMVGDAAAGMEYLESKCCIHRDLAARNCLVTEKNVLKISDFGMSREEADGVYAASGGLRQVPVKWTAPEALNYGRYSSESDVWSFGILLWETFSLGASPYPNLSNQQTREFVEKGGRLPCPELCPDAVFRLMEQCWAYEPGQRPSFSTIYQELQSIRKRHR

CHK2 Catalytic Domain = molecular target: T8, CHK2 Catalytic Domain (Homo sapiens, UniProt O96017); conditions: 2 µM protein, 10 µM inhibitor, average of 3 experiments, each in duplicate
T8 construct: For all of them, we expressed and purified the catalytic domain separately; His-tag; made in house; host or cells: Escherichia coli
T8 sequence (O96017 220-486 limits assumed): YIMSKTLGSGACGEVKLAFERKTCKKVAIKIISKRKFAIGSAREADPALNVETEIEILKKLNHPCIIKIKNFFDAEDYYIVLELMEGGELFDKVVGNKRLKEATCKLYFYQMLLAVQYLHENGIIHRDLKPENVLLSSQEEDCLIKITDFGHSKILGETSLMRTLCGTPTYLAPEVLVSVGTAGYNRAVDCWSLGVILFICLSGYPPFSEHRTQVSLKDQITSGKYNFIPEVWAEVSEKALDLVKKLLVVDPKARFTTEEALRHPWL

FAK2 Catalytic Domain = molecular target: T9, FAK2 Catalytic Domain (Homo sapiens, UniProt Q14289); conditions: 2 µM protein, 10 µM inhibitor, average of 3 experiments, each in duplicate
T9 construct: For all of them, we expressed and purified the catalytic domain separately; His-tag; made in house; host or cells: Escherichia coli
T9 sequence (Q14289 425-683 limits assumed): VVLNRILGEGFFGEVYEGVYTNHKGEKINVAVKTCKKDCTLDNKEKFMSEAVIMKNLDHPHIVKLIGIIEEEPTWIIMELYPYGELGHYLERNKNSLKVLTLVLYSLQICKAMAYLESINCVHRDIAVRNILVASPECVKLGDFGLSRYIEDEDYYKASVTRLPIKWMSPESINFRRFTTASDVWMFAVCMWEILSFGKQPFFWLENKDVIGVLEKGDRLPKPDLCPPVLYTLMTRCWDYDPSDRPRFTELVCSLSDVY

[2] = molecular target: T10, PAK4 Catalytic Domain+PBD (Homo sapiens, UniProt O96013); conditions: 2 µM protein, 10 µM inhibitor, average of 3 experiments, each in duplicate
T10 construct: for 8, we also made a longer version containing one or more additional domains; His-tag; made in house; host or cells: Escherichia coli
T10 sequence (O96013 whole entry, the tested form may be a part): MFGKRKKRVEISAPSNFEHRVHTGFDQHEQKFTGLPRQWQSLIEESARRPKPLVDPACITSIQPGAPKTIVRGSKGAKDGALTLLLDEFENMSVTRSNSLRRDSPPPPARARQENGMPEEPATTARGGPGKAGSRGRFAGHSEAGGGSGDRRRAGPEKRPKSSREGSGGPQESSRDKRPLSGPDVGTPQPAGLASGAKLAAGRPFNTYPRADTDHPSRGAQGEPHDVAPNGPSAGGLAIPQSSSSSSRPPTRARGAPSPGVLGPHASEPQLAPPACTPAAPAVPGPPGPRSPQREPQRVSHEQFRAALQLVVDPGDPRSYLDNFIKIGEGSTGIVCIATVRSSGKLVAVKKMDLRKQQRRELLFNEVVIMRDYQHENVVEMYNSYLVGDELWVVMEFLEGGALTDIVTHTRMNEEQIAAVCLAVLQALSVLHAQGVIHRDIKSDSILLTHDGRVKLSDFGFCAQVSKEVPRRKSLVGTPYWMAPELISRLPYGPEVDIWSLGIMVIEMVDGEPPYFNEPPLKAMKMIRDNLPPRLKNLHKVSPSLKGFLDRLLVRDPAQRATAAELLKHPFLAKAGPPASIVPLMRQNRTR

PAK7 Catalytic Domain = molecular target: T11, PAK7 Catalytic Domain (Homo sapiens, UniProt Q9P286); conditions: 2 µM protein, 10 µM inhibitor, average of 3 experiments, each in duplicate
T11 construct: For all of them, we expressed and purified the catalytic domain separately; His-tag; made in house; host or cells: Escherichia coli
T11 sequence (Q9P286 449-700 limits assumed): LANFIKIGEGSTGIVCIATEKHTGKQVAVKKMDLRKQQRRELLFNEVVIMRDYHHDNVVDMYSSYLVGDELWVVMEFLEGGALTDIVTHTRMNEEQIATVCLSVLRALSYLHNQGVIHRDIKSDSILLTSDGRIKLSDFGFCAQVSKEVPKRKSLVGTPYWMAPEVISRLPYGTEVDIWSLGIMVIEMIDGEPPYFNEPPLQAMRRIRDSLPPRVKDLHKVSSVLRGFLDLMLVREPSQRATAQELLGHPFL

CDK2 + Cyclin A = molecular target: T12, CDK2 + Cyclin A (Homo sapiens, UniProt P24941); conditions: CDK2 + Cyclin A; 2 µM protein, 10 µM inhibitor; average of 3 experiments, each in duplicate
T12 construct: CDK2 (P24941); 1–299; His-tag; made in house; host or cells: Escherichia coli

[3] = molecular target: SRC Catalytic Domain+SH2+SH3 (Homo sapiens, UniProt P12931); conditions: 2 µM protein, 10 µM inhibitor, average of 3 experiments, each in duplicate
Chain of SRC Catalytic Domain+SH2+SH3 (P12931 84-523 limits assumed): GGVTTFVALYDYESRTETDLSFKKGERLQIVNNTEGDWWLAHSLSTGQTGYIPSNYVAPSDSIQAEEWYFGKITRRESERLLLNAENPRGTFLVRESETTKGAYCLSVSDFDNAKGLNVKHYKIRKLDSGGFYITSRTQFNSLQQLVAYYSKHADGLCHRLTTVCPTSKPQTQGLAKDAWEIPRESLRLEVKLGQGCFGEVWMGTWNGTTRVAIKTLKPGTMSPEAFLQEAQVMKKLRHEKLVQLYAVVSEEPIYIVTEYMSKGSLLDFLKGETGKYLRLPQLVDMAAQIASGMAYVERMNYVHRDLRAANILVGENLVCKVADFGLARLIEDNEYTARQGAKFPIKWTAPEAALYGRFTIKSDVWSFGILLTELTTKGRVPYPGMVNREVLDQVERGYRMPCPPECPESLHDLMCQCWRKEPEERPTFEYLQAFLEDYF

Row | Molecule | Melting temperature (Tm) shift (PAK4 Catalytic Domain) | Melting temperature (Tm) shift (DMPK Catalytic Domain) | Melting temperature (Tm) shift (AKT3 Catalytic Domain) | Melting temperature (Tm) shift (STK3 Catalytic Domain) | Melting temperature (Tm) shift [1] | Melting temperature (Tm) shift (FES Catalytic Domain) | Melting temperature (Tm) shift (FES Catalytic Domain+SH2) | Melting temperature (Tm) shift (CHK2 Catalytic Domain) | Melting temperature (Tm) shift (FAK2 Catalytic Domain) | Melting temperature (Tm) shift [2] | Melting temperature (Tm) shift (PAK7 Catalytic Domain) | Melting temperature (Tm) shift (CDK2 + Cyclin A) | Melting temperature (Tm) shift [3]
1 | CC[C@@H](CO)Nc1nc(NCc2ccccc2)c2ncn(C(C)C)c2n1 (single isomer, unassigned) [Roscovitine, (S)-Isomer] | 1.4 degrees Celcius | 0.3 degrees Celcius | 0.0 degrees Celcius | 0.0 degrees Celcius | 0.0 degrees Celcius | 1.2 degrees Celcius | 0.9 degrees Celcius | 0.6 degrees Celcius | 0.2 degrees Celcius | 2.6 degrees Celcius | 0.7 degrees Celcius |  | 
2 | O=C1NC(=O)c2c1c1c3ccccc3[nH]c1c1[nH]c3ccccc3c21 [Arcyriaflavin A, Synthetic, Arcyriaflavin A] | 0.2 degrees Celcius |  | 0.0 degrees Celcius |  |  |  |  |  |  | 0.5 degrees Celcius |  |  | 
3 | CN(C)c1nc2c(Br)c(Br)c(Br)c(Br)c2[nH]1 [Casein Kinase II Inhibitor II, DMAT] | 0.2 degrees Celcius | 0.4 degrees Celcius |  | 0.3 degrees Celcius | 0.4 degrees Celcius |  |  | 0.3 degrees Celcius | 3.2 degrees Celcius | 0.3 degrees Celcius | 4.1 degrees Celcius | 0.5 degrees Celcius | 0.9 degrees Celcius
4 | Brc1c(Br)c(Br)c2n[nH]nc2c1Br [Casein Kinase II Inhibitor I] | 0.2 degrees Celcius | 0.6 degrees Celcius | 0.1 degrees Celcius | 1.1 degrees Celcius | 0.4 degrees Celcius | 0.0 degrees Celcius | 0.8 degrees Celcius | 2.2 degrees Celcius | 0.1 degrees Celcius | 0.9 degrees Celcius |  |  | 0.2 degrees Celcius
5 | O=c1c2ccccc2[nH]c(=S)n1CCN1CCC(=C(c2ccc(F)cc2)c2ccc(F)cc2)CC1 [Diacylglycerol Kinase Inhibitor II] |  |  |  |  |  | 0.7 degrees Celcius |  |  |  | 0.2 degrees Celcius |  |  | 
6 | CC#CC(=O)Nc1cc2c(Nc3ccc(F)c(Cl)c3)ncnc2cn1 [EGFR/ErbB-2/ErbB-4 Inhibitor] |  |  | 0.0 degrees Celcius | 0.2 degrees Celcius |  | 0.0 degrees Celcius |  | 0.3 degrees Celcius |  | 0.1 degrees Celcius | 0.0 degrees Celcius |  | 0.0 degrees Celcius
7 | O=C1c2ccccc2-[n+]2ccc3c([nH]c4ccccc43)c21 [Fascaplysin, Synthetic, Fascaplysin] |  | 0.4 degrees Celcius | 0.1 degrees Celcius |  |  | 0.2 degrees Celcius | 0.0 degrees Celcius |  |  |  |  |  | 
8 | CC(=O)O/N=C1/C(=C2/C(=O)Nc3cc(Br)ccc32)Nc2ccccc21 [GSK-3 Inhibitor X] | 0.6 degrees Celcius | 0.5 degrees Celcius | 0.1 degrees Celcius |  | 0.5 degrees Celcius | 0.4 degrees Celcius | 0.0 degrees Celcius |  |  | 1.0 degrees Celcius | 0.1 degrees Celcius |  | 
9 | COc1ccc2c(c1)c1c3c(c4c5ccccc5n(C)c4c1n2CC(O)CN(C)C)C(=O)NC3=O.Cl (stereo not shown) [Gö 7874, Hydrochloride] |  | 0.2 degrees Celcius | 0.2 degrees Celcius | 1.4 degrees Celcius | 2.2 degrees Celcius | 0.3 degrees Celcius | 0.0 degrees Celcius | 1.1 degrees Celcius | 0.7 degrees Celcius | 0.1 degrees Celcius | 0.1 degrees Celcius | 0.2 degrees Celcius | 
10 | O=C1Nc2ccc(I)cc2/C1=C1/Nc2ccccc2/C1=N\O [Indirubin-3ʹ′-monoxime, 5-Iodo-, Indirubin-3′ -monoxime, 5-Iodo-] | 0.3 degrees Celcius |  |  | 1.2 degrees Celcius | 5.6 degrees Celcius |  |  |  |  | 2.3 degrees Celcius |  |  | 
11 | O=C1C(Cl)=C(N2C(=O)CCC2=O)C(=O)c2ccccc21 [MEK Inhibitor II] | 0.0 degrees Celcius |  | 0.3 degrees Celcius |  | 0.1 degrees Celcius | 0.0 degrees Celcius | 0.0 degrees Celcius | 0.0 degrees Celcius |  |  | 0.0 degrees Celcius | 0.1 degrees Celcius | 0.0 degrees Celcius
12 | O.O=C1NCCc2[nH]c(-c3ccnc(-c4cnc5ccccc5c4)c3)cc21 [MK-2 Inhibitor III] | 0.0 degrees Celcius | 0.3 degrees Celcius | 0.0 degrees Celcius | 0.0 degrees Celcius | 0.4 degrees Celcius |  |  | 1.2 degrees Celcius | 0.1 degrees Celcius | 0.1 degrees Celcius | 0.0 degrees Celcius | 0.1 degrees Celcius | 0.1 degrees Celcius
13 | O=C1NC(=O)/C(=C/c2ccc3nccnc3c2)S1 [PI 3-Kg Inhibitor] | 0.1 degrees Celcius | 0.8 degrees Celcius | 0.0 degrees Celcius | 0.1 degrees Celcius | 0.1 degrees Celcius | 0.1 degrees Celcius | 0.1 degrees Celcius | 0.4 degrees Celcius |  |  | 0.0 degrees Celcius | 0.2 degrees Celcius | 0.0 degrees Celcius
14 | Akt Inhibitor VIII, Isozyme-Selective, Akti-1/2 |  |  |  |  |  |  |  | 0.4 degrees Celcius | 0.1 degrees Celcius |  | 0.0 degrees Celcius | 0.2 degrees Celcius | 
